From BindingDB's records for patent US20230331683 (University of Virginia Patent Foundation, 2023)

molecular target: T1, Sphingosine-1-phosphate transporter SPNS2 (Mus musculus, UniProt Q91VM4); experiment: S1P Transporter Assay
T1 sequence (Q91VM4 whole entry): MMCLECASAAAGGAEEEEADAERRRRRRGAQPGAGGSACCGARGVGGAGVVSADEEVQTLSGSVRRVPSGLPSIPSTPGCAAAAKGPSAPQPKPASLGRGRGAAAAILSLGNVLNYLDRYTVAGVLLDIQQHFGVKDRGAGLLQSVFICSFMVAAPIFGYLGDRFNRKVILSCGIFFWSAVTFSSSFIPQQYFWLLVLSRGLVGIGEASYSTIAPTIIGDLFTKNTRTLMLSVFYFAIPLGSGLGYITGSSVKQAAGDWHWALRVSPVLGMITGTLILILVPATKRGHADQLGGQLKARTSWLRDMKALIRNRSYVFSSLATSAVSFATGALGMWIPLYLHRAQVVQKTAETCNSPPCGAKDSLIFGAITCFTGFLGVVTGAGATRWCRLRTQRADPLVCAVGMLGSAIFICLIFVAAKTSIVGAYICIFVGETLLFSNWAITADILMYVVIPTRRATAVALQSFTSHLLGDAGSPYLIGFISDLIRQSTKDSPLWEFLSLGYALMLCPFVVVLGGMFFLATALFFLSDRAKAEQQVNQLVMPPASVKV
Procedure: Transporter assays are vectorial and therefore require measurement of the transported analyte in different compartments. The S1P transporter SPNS2 only exports S1P, which obviates measuring uptake of S1P into transporter-expressing cells. Thus, transporter activity was determined by quantifying S1P release from whole cells expressing SPNS2. SPNS2 inhibitor potency was assessed using whole cell assays. HeLa cells expressing mouse SPNS2 were used to determine inhibitor potency (IC50). Cells were plated onto 12 well plates and assayed when the cell monolayers became confluent. Cell growth media (RPMI-1640 containing 10% fetal bovine serum) was replaced with 2 mL of serum-free media (RPMI-1640) containing fatty acid free bovine serum albumin (BSA) (0.2 % w/v) and supplemented with 4-deoxypyridoxine (DOP) (1 mM), NaF (2 mM), Na3VO4 (0.2 mM) to inhibit S1P degradation. Test articles (1 × 10-9 - 1 × 10^-4 M) were assayed in duplicate or triplicate. After 18 hours, media was collected, an internal recovery standard (0.005 mL of 5 × 10^-7 M deuterated (d7) S 1P in methanol) was added, the BSA was precipitated with trichloroacetic acid and the bound S1P extracted with methanol. S1P and S1P-d7 were measured by liquid chromatography mass spectrometry.

IC50 [nM] | SMILES
> 2000 | CCCCCCCCc1ccc2cc(NC(=O)CCCN)ccc2c1 [US20230331683, Compound 2k]
< 2000 | CCCCCCCCCCc1ccc(NC(=O)[C@@H]2CCN(C(=N)N)C2)cc1 [US20230331683, Compound 4b]
> 2000 | CCCCCCCCCCc1ccc2nc(CCCN)oc2c1 [US20230331683, Compound 8e]
< 2000 | CCCCCCCCCCc1ccc2oc(N[C@H]3CCNC3)nc2c1 [US20230331683, Compound 13j]
< 2000 | CCCCCCCCCCc1ccc2oc(N[C@@H]3CCNC3)nc2c1 [US20230331683, Compound 13k]
< 2000 | CCCCCCCCCCc1ccc2nc(N[C@H]3CCNC3)oc2c1 [US20230331683, Compound 13s]
< 2000 | CCCCCCCCCCc1ccc2nc(N[C@@H]3CCNC3)oc2c1 [US20230331683, Compound 13t]
< 2000 | CCCCCCCCCCc1ccc(C(=O)N[C@H]2CCNC2)cc1 [US20230331683, Compound 26a]
< 2000 | CCCCCCCCCCc1ccc(C(=O)N[C@@H]2CCNC2)cc1 [US20230331683, Compound 26b]
> 2000 | CCCCCCCCCCc1ccc(C(=O)N(C)[C@@H]2CCNC2)cc1 [US20230331683, Compound 32]
< 2000 | CCCCCCCCCCc1ccc(C(=S)N[C@@H]2CCNC2)cc1 [US20230331683, Compound 33]
< 2000 | CCCCCCCCCCc1ccc2oc(NC[C@@H]3CCNC3)nc2c1 [US20230331683, Compound 37]
< 2000 | CCCCCCCCCCc1ccc2oc(NC[C@H]3CCNC3)nc2c1 [US20230331683, Compound 38]
